According to ChEMBL document CHEMBL1148875, “Benzopyrans as selective estrogen receptor beta agonists (SERBAs). Part 2: structure-activity relationship studies on the benzopyran scaffold” (Bioorg Med Chem Lett, 2007):
pKi: −log10 of the molar value.

Tests used:
Estrogen receptor = target: T1, Estrogen receptor (Homo sapiens, UniProt P03372); assay: Binding affinity to human ERalpha
T1 sequence (P03372 whole entry): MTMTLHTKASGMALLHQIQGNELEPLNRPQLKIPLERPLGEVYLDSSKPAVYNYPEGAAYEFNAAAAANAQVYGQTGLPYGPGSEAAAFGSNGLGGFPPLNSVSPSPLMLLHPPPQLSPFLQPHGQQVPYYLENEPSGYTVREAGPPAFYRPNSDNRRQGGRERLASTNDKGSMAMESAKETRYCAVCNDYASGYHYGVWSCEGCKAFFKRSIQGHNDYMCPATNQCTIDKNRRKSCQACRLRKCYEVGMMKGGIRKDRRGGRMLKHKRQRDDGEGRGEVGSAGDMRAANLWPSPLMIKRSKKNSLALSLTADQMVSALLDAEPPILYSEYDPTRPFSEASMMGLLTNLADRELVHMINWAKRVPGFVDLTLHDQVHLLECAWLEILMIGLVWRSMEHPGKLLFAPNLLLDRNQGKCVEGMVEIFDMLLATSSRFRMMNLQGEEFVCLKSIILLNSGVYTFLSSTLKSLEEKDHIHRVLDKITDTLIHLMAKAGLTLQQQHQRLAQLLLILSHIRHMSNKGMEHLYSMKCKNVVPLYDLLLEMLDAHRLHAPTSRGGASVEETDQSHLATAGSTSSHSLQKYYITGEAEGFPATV

Estrogen receptor beta = Estrogen receptor beta (Homo sapiens, UniProt Q92731); assay: Binding affinity to human ERbeta
Sequence of Estrogen receptor beta (Q92731 whole entry): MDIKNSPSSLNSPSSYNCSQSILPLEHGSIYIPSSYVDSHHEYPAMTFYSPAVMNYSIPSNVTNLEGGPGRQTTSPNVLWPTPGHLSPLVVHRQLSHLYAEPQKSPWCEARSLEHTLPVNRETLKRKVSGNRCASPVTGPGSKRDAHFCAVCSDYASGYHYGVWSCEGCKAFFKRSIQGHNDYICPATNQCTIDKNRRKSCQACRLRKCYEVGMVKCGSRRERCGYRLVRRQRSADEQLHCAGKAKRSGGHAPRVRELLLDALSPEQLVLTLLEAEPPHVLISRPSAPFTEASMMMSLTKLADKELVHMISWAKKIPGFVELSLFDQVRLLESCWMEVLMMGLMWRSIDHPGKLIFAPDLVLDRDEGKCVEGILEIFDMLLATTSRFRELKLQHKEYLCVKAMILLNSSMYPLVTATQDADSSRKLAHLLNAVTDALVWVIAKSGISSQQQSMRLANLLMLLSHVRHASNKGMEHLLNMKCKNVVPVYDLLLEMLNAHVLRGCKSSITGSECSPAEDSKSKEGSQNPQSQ

Row | SMILES | pKi (Estrogen receptor) | pKi (Estrogen receptor beta)
1 | Oc1ccc([C@H]2Oc3ccc(O)cc3[C@H]3CCCCC[C@H]32)cc1 | 8.21 | 9.06
2 | Oc1ccc([C@@H]2CCc3cc(O)ccc3O2)cc1 |  | 7.68
3 | Oc1ccc([C@H]2Oc3ccc(O)cc3[C@H]3CCCC[C@H]32)cc1 | 8.54 | 9.20
4 | Oc1ccc([C@H]2Oc3cccc(O)c3[C@H]3CCC[C@H]32)cc1 | 9.46 | 9.18

Continued, in another order:

Row | pKi (Estrogen receptor) | SMILES | pKi (Estrogen receptor beta)
5 | 7.19 | Oc1cccc([C@H]2Oc3ccc(O)cc3[C@H]3CCC[C@H]32)c1 | 
6 | 7.40 | Oc1ccc([C@H]2Oc3ccccc3[C@H]3CCC[C@H]32)cc1 | 7.66
7 | 7.39 | Oc1ccc([C@H]2Oc3cc(O)ccc3[C@H]3CCC[C@H]32)cc1 | 7.72
8 | 6.57 | Oc1ccc2c(c1)[C@H]1CCC[C@H]1[C@@H](c1ccccc1)O2 | 
